# Assay results as given in patent publication US9113629B2, “4-amino-6-(4-substituted-phenyl)-picolinates and 6-amino-2-(4-substituted-phenyl)-pyrimidine-4-carboxylates and their use as herbicides” (DOW AGROSCIENCES LLC, priority 2013, dated 2015).
# Where two headings read alike, the source gives them in different places.
# Key:
# [1] = tested on: Key Grass and Sedge Weeds as well as Grass Crops; assay: Post-emergent Test II herbicidal activity (Table 6); assay type: in vivo; conditions: post-emergence, 336 h; for pest or weed control at 70 g/ha: 70 g ai/ha; for pest or weed control at 140 g/ha: 140 g ai/ha
# Method in brief: (§1)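 Greenhouse-grown plants at first or second true leaf stage were sprayed post-emergence with compound in acetone/DMSO-based aqueous spray containing crop oil concentrate and surfactant, at 187 L/ha, highest rate plus ½× to 1/16× dilutions. After 14 d, injury was scored visually versus untreated plants, 0 (none) to 100% (complete kill).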
# [2] = tested on: Key Broadleaf Weed and Crop Species; assay: Post-emergent Test II herbicidal activity (Table 5); assay type: in vivo; conditions: post-emergence, 336 h, 14 days after application; for pest or weed control at 70 g/ha: application rate 70 g ai/ha; for pest or weed control at 140 g/ha: application rate 140 g ai/ha
# Method in brief: as §1
# [3] = CYPES: yellow nutsedge (Cyperus esculentus), read-out: Visual Growth Reduction (%) 14 Days After Application, CYPES
# [4] = DIGSA: crabgrass (Digitaria sanguinalis), read-out: Visual Growth Reduction (%) 14 Days After Application, DIGSA
# [5] = ECHCG: barnyardgrass (Echinochloa crus-galli), read-out: Visual Growth Reduction (%) 14 Days After Application, ECHCG
# [6] = ORYSA: rice (Oryza sativa), crop, read-out: Visual Growth Reduction (%) 14 Days After Application, ORYSA
# [7] = SETFA: giant foxtail (Setaria faberi), read-out: Visual Growth Reduction (%) 14 Days After Application, SETFA
# [8] = SORVU: grain sorghum (Sorghum vulgare), read-out: Visual Growth Reduction (%) 14 Days After Application, SORVU
# [9] = TRZSS (wheat, Triticum aestivum), crop, read-out: Visual Growth Reduction (%) 14 Days After Application, TRZSS
# [10] = ZEAMX: maize, corn (Zea mays), crop, read-out: Visual Growth Reduction (%) 14 Days After Application, ZEAMX
# [11] = ABUTH: velvetleaf (Abutilon theophrasti), read-out: Visual Growth Reduction (%) 14 Days After Application, ABUTH
# [12] = AMARE: redroot pigweed (Amaranthus retroflexus), read-out: Visual Growth Reduction (%) 14 Days After Application, AMARE
# [13] = BRSNN: oilseed-rape, canola (Brassica napus), read-out: Visual Growth Reduction (%) 14 Days After Application, BRSNN
# [14] = CHEAL: lambsquarters (Chenopodium album), read-out: Visual Growth Reduction (%) 14 Days After Application, CHEAL
# [15] = EPHHL: wild poinsettia (Euphorbia heterophylla), read-out: Visual Growth Reduction (%) 14 Days After Application, EPHHL
# [16] = HELAN: sunflower (Helianthus annuus), read-out: Visual Growth Reduction (%) 14 Days After Application, HELAN
# [17] = VIOTR: wild pansy (Viola tricolor), read-out: Visual Growth Reduction (%) 14 Days After Application, VIOTR
smiles,measurement,setting,value
Nc1c(F)c(-c2ccc(I)c(F)c2)nc(C(=O)O)c1Cl [Compound 157],pest or weed control at 70 g/ha,[1]; [3],45 to 59%
same,pest or weed control at 140 g/ha,[1]; [3],45 to 59%
same,pest or weed control at 70 g/ha,[1]; [4],75 to 84%
same,pest or weed control at 140 g/ha,[1]; [4],85 to 94%
same,pest or weed control at 70 g/ha,[1]; [5],95 to 100%
same,pest or weed control at 140 g/ha,[1]; [5],95 to 100%
same,pest or weed control at 70 g/ha,[1]; [6],0 to 29%
same,pest or weed control at 140 g/ha,[1]; [6],0 to 29%
same,pest or weed control at 70 g/ha,[1]; [7],95 to 100%
same,pest or weed control at 140 g/ha,[1]; [7],95 to 100%
same,pest or weed control at 70 g/ha,[1]; [8],85 to 94%
same,pest or weed control at 140 g/ha,[1]; [8],95 to 100%
same,pest or weed control at 70 g/ha,[1]; [9],45 to 59%
same,pest or weed control at 140 g/ha,[1]; [9],45 to 59%
same,pest or weed control at 70 g/ha,[1]; [10],95 to 100%
same,pest or weed control at 140 g/ha,[1]; [10],95 to 100%
same,pest or weed control at 70 g/ha,[2]; [11],85 to 94%
same,pest or weed control at 140 g/ha,[2]; [11],85 to 94%
same,pest or weed control at 70 g/ha,[2]; [12],95 to 100%
same,pest or weed control at 140 g/ha,[2]; [12],95 to 100%
same,pest or weed control at 70 g/ha,[2]; [13],95 to 100%
same,pest or weed control at 140 g/ha,[2]; [13],95 to 100%
same,pest or weed control at 70 g/ha,[2]; [14],95 to 100%
same,pest or weed control at 140 g/ha,[2]; [14],95 to 100%
same,pest or weed control at 70 g/ha,[2]; [15],95 to 100%
same,pest or weed control at 140 g/ha,[2]; [15],95 to 100%
same,pest or weed control at 70 g/ha,[2]; [16],95 to 100%
same,pest or weed control at 140 g/ha,[2]; [16],95 to 100%
same,pest or weed control at 70 g/ha,[2]; [17],95 to 100%
same,pest or weed control at 140 g/ha,[2]; [17],95 to 100%
same,melting point,,140 to 150 °C (dec.)
COC(=O)c1nc(-c2ccc(C#N)c(F)c2F)c(F)c(N)c1Cl [Compound 160],pest or weed control at 70 g/ha,[1]; [3],0 to 29%
same,pest or weed control at 140 g/ha,[1]; [3],0 to 29%
same,pest or weed control at 70 g/ha,[1]; [4],0 to 29%
same,pest or weed control at 140 g/ha,[1]; [4],0 to 29%
same,pest or weed control at 70 g/ha,[1]; [5],0 to 29%
same,pest or weed control at 140 g/ha,[1]; [5],0 to 29%
same,pest or weed control at 70 g/ha,[1]; [6],0 to 29%
same,pest or weed control at 140 g/ha,[1]; [6],0 to 29%
same,pest or weed control at 70 g/ha,[1]; [7],0 to 29%
same,pest or weed control at 140 g/ha,[1]; [7],0 to 29%
same,pest or weed control at 70 g/ha,[1]; [8],0 to 29%
same,pest or weed control at 140 g/ha,[1]; [8],0 to 29%
same,pest or weed control at 70 g/ha,[1]; [9],0 to 29%
same,pest or weed control at 140 g/ha,[1]; [9],0 to 29%
same,pest or weed control at 70 g/ha,[1]; [10],0 to 29%
same,pest or weed control at 140 g/ha,[1]; [10],0 to 29%
same,pest or weed control at 70 g/ha,[2]; [11],30 to 44%
same,pest or weed control at 140 g/ha,[2]; [11],45 to 59%
same,pest or weed control at 70 g/ha,[2]; [12],85 to 94%
same,pest or weed control at 140 g/ha,[2]; [12],95 to 100%
same,pest or weed control at 70 g/ha,[2]; [13],0 to 29%
same,pest or weed control at 140 g/ha,[2]; [13],0 to 29%
same,pest or weed control at 70 g/ha,[2]; [14],60 to 74%
same,pest or weed control at 140 g/ha,[2]; [14],75 to 84%
same,pest or weed control at 70 g/ha,[2]; [15],45 to 59%
same,pest or weed control at 140 g/ha,[2]; [15],60 to 74%
same,pest or weed control at 70 g/ha,[2]; [16],85 to 94%
same,pest or weed control at 140 g/ha,[2]; [16],95 to 100%
same,pest or weed control at 70 g/ha,[2]; [17],0 to 29%
same,pest or weed control at 140 g/ha,[2]; [17],0 to 29%
same,melting point,,163 to 164 °C
Nc1c(F)c(-c2ccc(Br)cc2F)nc(C(=O)O)c1Cl [Compound 163],pest or weed control at 70 g/ha,[1]; [3],95 to 100%
same,pest or weed control at 140 g/ha,[1]; [3],95 to 100%
same,pest or weed control at 70 g/ha,[1]; [4],75 to 84%
same,pest or weed control at 140 g/ha,[1]; [4],85 to 94%
same,pest or weed control at 70 g/ha,[1]; [5],85 to 94%
same,pest or weed control at 140 g/ha,[1]; [5],85 to 94%
same,pest or weed control at 70 g/ha,[1]; [6],0 to 29%
same,pest or weed control at 140 g/ha,[1]; [6],0 to 29%
same,pest or weed control at 70 g/ha,[1]; [7],85 to 94%
same,pest or weed control at 140 g/ha,[1]; [7],95 to 100%
same,pest or weed control at 70 g/ha,[1]; [8],85 to 94%
same,pest or weed control at 140 g/ha,[1]; [8],85 to 94%
same,pest or weed control at 70 g/ha,[1]; [9],60 to 74%
same,pest or weed control at 140 g/ha,[1]; [9],60 to 74%
same,pest or weed control at 70 g/ha,[1]; [10],45 to 59%
same,pest or weed control at 140 g/ha,[1]; [10],60 to 74%
same,pest or weed control at 70 g/ha,[2]; [11],85 to 94%
same,pest or weed control at 140 g/ha,[2]; [11],85 to 94%
same,pest or weed control at 70 g/ha,[2]; [12],95 to 100%
same,pest or weed control at 140 g/ha,[2]; [12],95 to 100%
same,pest or weed control at 70 g/ha,[2]; [13],95 to 100%
same,pest or weed control at 140 g/ha,[2]; [13],95 to 100%
same,pest or weed control at 70 g/ha,[2]; [14],95 to 100%
same,pest or weed control at 140 g/ha,[2]; [14],95 to 100%
same,pest or weed control at 70 g/ha,[2]; [15],95 to 100%
same,pest or weed control at 140 g/ha,[2]; [15],95 to 100%
same,pest or weed control at 70 g/ha,[2]; [16],95 to 100%
same,pest or weed control at 140 g/ha,[2]; [16],95 to 100%
same,pest or weed control at 70 g/ha,[2]; [17],95 to 100%
same,pest or weed control at 140 g/ha,[2]; [17],95 to 100%
same,melting point,,162 to 164 °C
